Data from BindingDB's records for doi:10.1016/j.bmcl.2005.04.079 (F. Hoffmann-La Roche, 2005).

Target: T1, Serine protease 1 (Bos taurus, UniProt P00760)
T1 sequence (P00760 whole entry): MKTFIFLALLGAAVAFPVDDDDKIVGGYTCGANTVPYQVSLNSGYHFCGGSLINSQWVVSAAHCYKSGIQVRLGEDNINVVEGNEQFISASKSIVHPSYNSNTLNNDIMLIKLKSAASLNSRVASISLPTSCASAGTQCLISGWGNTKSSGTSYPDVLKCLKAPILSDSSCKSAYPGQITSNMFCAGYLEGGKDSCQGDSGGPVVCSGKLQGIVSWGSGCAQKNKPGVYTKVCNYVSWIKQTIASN
Assay: Serine Protease Inhibition Assay
Experimental: The enzyme reactions were initiated by the addition of substrate, and the color developed from the release of p-nitroanilide from each chromogenic substrate was monitored continuously for 5 min at 405 nm on a microtiter plate reader. […] The apparent Ki values were then calculated according to the Cheng-Prusoff equation: Ki = IC50/1 + [S]/Km.

## CCOc1cc(-c2ccccc2)cc(C(Nc2ccc(C(=N)N)cc2)C(=O)O)c1 (stereo unspecified) [2-[(4-carbamimidoylphenyl)amino]-2-(3-ethoxy-5-phenylphenyl)acetic acid]
  Ki: > 68 µM
